Measurements taken from US8658591B2, “Multi-LEU peptides and analogues thereof as selective PACE4 inhibitors and effective antiproliferative agents” (priority 2008, dated 2014).

Legend:
Format in all cases: biochemical
PC1/3 = molecular target: T1, PC1/3 (Homo sapiens, UniProt P29120); experiment: Enzyme inhibition assay, fluorogenic substrate, PC1/3
T1 sequence (P29120 111-753): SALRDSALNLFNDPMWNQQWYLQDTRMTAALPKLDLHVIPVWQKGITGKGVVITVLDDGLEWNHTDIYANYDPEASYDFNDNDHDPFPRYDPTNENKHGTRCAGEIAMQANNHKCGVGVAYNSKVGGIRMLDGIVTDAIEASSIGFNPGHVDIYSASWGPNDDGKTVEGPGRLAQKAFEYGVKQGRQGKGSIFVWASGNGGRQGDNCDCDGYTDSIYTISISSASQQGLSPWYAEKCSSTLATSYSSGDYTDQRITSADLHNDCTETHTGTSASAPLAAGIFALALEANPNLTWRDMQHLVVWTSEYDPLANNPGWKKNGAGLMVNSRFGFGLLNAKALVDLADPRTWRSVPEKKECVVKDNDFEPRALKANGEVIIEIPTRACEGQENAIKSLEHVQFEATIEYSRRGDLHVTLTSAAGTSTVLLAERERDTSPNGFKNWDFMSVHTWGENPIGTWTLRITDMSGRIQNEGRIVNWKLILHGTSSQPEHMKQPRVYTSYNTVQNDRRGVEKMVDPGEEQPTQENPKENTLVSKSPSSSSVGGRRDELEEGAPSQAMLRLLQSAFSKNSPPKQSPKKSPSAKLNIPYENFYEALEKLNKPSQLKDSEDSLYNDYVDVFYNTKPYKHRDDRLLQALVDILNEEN
Protocol: (§1) Enzyme inhibition assays for furin (FIG. 5D) were performed in 100 mM Hepes pH 7.5, 1 mM CaCl2, 1 mM β-mercaptoethanol, 0.5 μg/μL BSA. Assays for PC2 (FIG. 5E) were performed in 20 mM Bis-Tris pH 5,7, 1 mM CaCl2, 0.1% Brij-30. Assays for PC1/3, PC4, PACE4, PC5/6 and PC7 (FIGS. 5F, G, A, B and C respectively) were performed in 20 mM Bis-Tis pH 6.5, 1 mM CaCl2. All assays were performed with the substrate pyroGlu-Arg-[…]-Lys-Arg-methyl-coumaryl-7-amide (SEQ ID NO: 33) (PyrRTKR-MCA (SEQ ID NO: 34)) (Bachem, CA) at 100 μM for furin, PC1/3, PC4, PACE4 and PC5/6, 200 μM for PC2 and 250 μM for PC7. Assays were carried out at 37° C. for 30-60 min and real-time fluorescence was measured with an excitation wavelength of 370 nm and an emission wavelength of 460 nm using a Gemini XS™ 96-well spectrofluorometer and SoftMaxPro4™ software (Molecular Devices, CA). Inhibitory peptides were added to the enzymes at decreasing concentrations from 100 μM to 50 nM and incubated 5 minutes prior to the addition of substrate.

PACE4 = molecular target: T2, PACE4 (Homo sapiens, UniProt P29122); experiment: Enzyme inhibition assay, fluorogenic substrate, PACE4
T2 sequence (P29122 150-969): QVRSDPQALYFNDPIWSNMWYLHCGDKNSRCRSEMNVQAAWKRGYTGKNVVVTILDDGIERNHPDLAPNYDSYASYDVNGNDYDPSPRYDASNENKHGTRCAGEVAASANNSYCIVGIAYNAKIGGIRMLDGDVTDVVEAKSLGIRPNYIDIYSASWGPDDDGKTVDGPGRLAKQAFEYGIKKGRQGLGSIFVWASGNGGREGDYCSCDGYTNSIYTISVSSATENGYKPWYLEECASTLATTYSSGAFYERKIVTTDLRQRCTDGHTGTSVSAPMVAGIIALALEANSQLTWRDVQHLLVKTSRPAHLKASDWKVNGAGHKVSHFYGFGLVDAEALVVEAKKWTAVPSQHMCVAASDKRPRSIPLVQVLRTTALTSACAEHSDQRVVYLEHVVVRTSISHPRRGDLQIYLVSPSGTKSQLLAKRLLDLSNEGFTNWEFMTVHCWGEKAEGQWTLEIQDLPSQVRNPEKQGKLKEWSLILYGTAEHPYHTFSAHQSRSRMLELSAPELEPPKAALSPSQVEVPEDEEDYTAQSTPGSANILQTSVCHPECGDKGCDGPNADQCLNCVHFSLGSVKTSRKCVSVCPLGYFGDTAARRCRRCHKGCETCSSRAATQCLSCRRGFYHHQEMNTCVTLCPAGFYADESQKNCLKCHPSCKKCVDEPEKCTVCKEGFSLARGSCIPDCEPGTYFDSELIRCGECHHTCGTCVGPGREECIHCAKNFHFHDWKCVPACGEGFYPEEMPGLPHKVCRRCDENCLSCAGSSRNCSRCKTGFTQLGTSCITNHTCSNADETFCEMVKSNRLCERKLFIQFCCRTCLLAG
Excerpt: Those skilled in the art can easily determine PACE4 activity using routine experimentation. For example, the activity assay of PACE4 can be carried out in 96 well plates, and includes the use of a fluorogenic substrate, namely PyrRTKR-AMC (SEQ ID NO: 30) (AMC is amino-methyl-coumarin). The substrate and the purified enzyme are placed in the wells, and depending on the units of enzyme present, the AMC moiety will be cleaved at a certain rate, such a pmoles/sec. The resultant free AMC is now fluorescent and can be detected with a spectrofluorometer. The addition of inhibitors to the assay will yield progress curves that have lesser slopes. Based on these changes the inhibitory constants (Ki) is calculated (Fugere et al., 2002, J. Biol. Chem., 277:7648-56).
as §1

PC7 = molecular target: T3, PC7 (Homo sapiens, UniProt Q16549); experiment: Enzyme inhibition assay, fluorogenic substrate, PC7
T3 sequence (Q16549 142-785): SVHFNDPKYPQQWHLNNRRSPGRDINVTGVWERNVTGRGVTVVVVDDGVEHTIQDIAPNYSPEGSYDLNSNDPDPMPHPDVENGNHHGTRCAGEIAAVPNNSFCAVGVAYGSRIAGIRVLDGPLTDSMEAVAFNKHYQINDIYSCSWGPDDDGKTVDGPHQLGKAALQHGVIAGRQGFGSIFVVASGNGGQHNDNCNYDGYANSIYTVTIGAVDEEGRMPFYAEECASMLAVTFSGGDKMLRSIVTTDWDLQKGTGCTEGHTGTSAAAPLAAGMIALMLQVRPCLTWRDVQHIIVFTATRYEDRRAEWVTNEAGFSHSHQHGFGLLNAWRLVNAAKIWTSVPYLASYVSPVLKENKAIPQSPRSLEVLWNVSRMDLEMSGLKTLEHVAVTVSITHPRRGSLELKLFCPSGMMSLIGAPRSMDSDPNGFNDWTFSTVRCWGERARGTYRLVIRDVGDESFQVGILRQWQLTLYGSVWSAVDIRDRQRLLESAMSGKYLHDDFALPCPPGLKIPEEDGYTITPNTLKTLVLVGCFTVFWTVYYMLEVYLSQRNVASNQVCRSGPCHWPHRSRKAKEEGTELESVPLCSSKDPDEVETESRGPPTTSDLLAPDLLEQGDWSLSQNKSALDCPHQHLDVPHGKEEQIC
Protocol: as §1

RVKR [RVKR—NH2, RVKR-NH2]
poor micromolar inhibitor: inhibition potency on PC1/3, in words (PC1/3) | inhibition potency on PACE4, in words (PACE4) | inhibition potency on PC7, in words (PC7)
